Test results: publication PMC8449059, “Structural and functional variation of chitin-binding domains of a lytic polysaccharide monooxygenase from Cellvibrio japonicus” (The Journal of Biological Chemistry, 2021)

Biological target: T1, CjCBM5 (family 5 carbohydrate-binding module of CjLPMO10A) (Cellvibrio japonicus, UniProt B3PJ79)
T1 construct: gene cbp33A; isolated CBM5 domain, residues 251-309 of 397; extra N-terminal Met, C-terminal Ala + 6xHis tag kept; 15N-labelled; E. coli cytoplasmic expression (pNIC-CH)
T1 sequence (B3PJ79 entry or part of it): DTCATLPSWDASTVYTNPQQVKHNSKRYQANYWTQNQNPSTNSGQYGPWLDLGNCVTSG
Test: NMR titration, […]-HSQC chemical shift perturbation
Details: 50 mM sodium phosphate, pH 7.0, 10% D2O; 70 uM 15N-labelled protein; average of W283, T284, Q285, Y296, G297

Kd: 2 ± 1 mM
SMILES: CC(=O)N[C@H]1[C@H](O[C@H]2[C@H](O)[C@@H](NC(C)=O)C(O[C@H]3[C@H](O)[C@@H](NC(C)=O)C(O[C@H]4[C@H](O)[C@@H](NC(C)=O)C(O[C@H]5[C@H](O)[C@@H](NC(C)=O)C(O[C@H]6[C@H](O)[C@@H](NC(C)=O)C(O)O[C@@H]6CO)O[C@@H]5CO)O[C@@H]4CO)O[C@@H]3CO)O[C@@H]2CO)O[C@H](CO)[C@@H](O)[C@@H]1O (stereo partly shown) [chitohexaose]
